Test results as given in patent US9357773B2, “Herbicidal agents containing aclonifen” (BAYER CROPSCIENCE AKTIENGESELLSCHAFT, priority 2012, dated 2016).

Assays:
[1] = test system: Lolium spp. resistant to HRAC group A; test: Greenhouse trial, post-emergence action against resistant ryegrass biotype (HRAC group A); type: in vivo; settings: post-emergence (PO, BBCH 11), about 3 weeks after application
Procedure: (§1) In the standard design of the test, seeds of various broad-leaved weed and weed grass biotypes (origins) were sown in a 8-13 cm diameter pot filled with natural soil of a standard field soil (loamy silt; non-sterile) and covered with a covering soil layer of about 1 cm. The pots were then cultivated in a greenhouse (12-16 h light, temperature day 20-22° C., night 15-18° C.) until the time of application. The pots were treated on a laboratory track sprayer with spray liquors comprising the compositions according to the invention, mixtures of the prior art or components used individually. Application of the active compounds or active compound combinations formulated as WG, WP, EC or otherwise was carried out at the appropriate growth stages of the plants. The amount of water used for spray application was 100-600 l/ha. After the treatment, the plants were returned to the greenhouses.
(§2) About 3 weeks after the application, the soil action or/and foliar action was assessed visually according to a scale of 0-100% in comparison to an untreated comparative group: 0%=no noticable effect compared to the untreated comparative group; 100%=full effect compared to the untreated comparative group.
(§3) (Notes: the term “seeds” also includes vegetative propagation forms such as, for example, rhizome pieces; abbreviations used: h light=hours of illumination, g of AS/ha=grams of active substance per hectare, l/ha=liter per hectare, S=sensitive, R=resistant) • 1. Pre-emergence action against weeds: seeds of various broad-leaved weed and weed grass biotypes (origins) were sown in a 8-13 cm diameter pot filled with natural soil of a standard field soil (loamy silt; non-sterile) and covered with a covering soil layer of about 1 cm. The pots were then cultivated in a greenhouse (12-16 h light, temperature day 20-22° C., night 15-18° C.) until the time of application. […]

[2] = test system: Lolium spp. resistant to HRAC group B; test: Greenhouse trial, post-emergence action against resistant ryegrass biotype (HRAC group B); type: in vivo; settings: post-emergence (PO, BBCH 11), about 3 weeks after application
Procedure: as §1, §2, §3

## Cn1nc(C(F)(F)F)c(CS(=O)(=O)C2=NOC(C)(C)C2)c1OC(F)F [(B) pyroxasulfone, 3-[[[5-(difluoromethoxy)-1-methyl-3-(trifluoromethyl)-1H-pyrazol-4-yl]methyl]sulfonyl]-4,5-dihydro-5,5-dimethylisoxazole]
[1]; 13 g of AS/ha
  effect (visual scale 0-100% vs untreated): 45%
[2]; 13 g of AS/ha
  effect (visual scale 0-100% vs untreated): 70%

## Nc1c([N+](=O)[O-])ccc(Oc2ccccc2)c1Cl [(A) aclonifen, 2-chloro-6-nitro-3-phenoxybenzenamine]
[1]; 225 g of AS/ha
  effect (visual scale 0-100% vs untreated): 25%
[2]; 225 g of AS/ha
  effect (visual scale 0-100% vs untreated): 50%

## O=C(Nc1ccc(F)cc1)c1cccc(Oc2cccc(C(F)(F)F)c2)n1 [(C) picolinafen, N-(4-fluorophenyl)-6-[3-(trifluoromethyl)phenoxy]-2-pyridinecarboxamide]
[1]; 25 g of AS/ha
  effect (visual scale 0-100% vs untreated): 10%
[2]; 25 g of AS/ha
  effect (visual scale 0-100% vs untreated): 5%
